Test results as given in PubChem BioAssay AID1259407 (Chemical Carcinogenesis Research Information System (CCRIS), 2018).
The source made the active and inactive calls. How the calls were made is not given here.

Tested on: CCRIS mutagenicity, Ames/micronucleus/aberration tests
Test: CCRIS mutagenicity studies
[1] = Test System: AMES SALMONELLA TYPHIMURIUM, Strain/Indicator: TA98, Metabolic Activation: NONE, Method: PREINCUBATION
[2] = Test System: AMES SALMONELLA TYPHIMURIUM, Strain/Indicator: TA100, Metabolic Activation: NONE, Method: PREINCUBATION
[3] = Test System: AMES SALMONELLA TYPHIMURIUM, Strain/Indicator: TA1535, Metabolic Activation: NONE, Method: PREINCUBATION
[4] = Test System: AMES SALMONELLA TYPHIMURIUM, Strain/Indicator: TA1537, Metabolic Activation: NONE, Method: PREINCUBATION
[5] = Test System: AMES SALMONELLA TYPHIMURIUM, Strain/Indicator: TA98, Metabolic Activation: HAMSTER, LIVER, S-9, AROCLOR 1254, Method: PREINCUBATION
[6] = Test System: AMES SALMONELLA TYPHIMURIUM, Strain/Indicator: TA98, Metabolic Activation: RAT, LIVER, S-9, AROCLOR 1254, Method: PREINCUBATION
[7] = Test System: AMES SALMONELLA TYPHIMURIUM, Strain/Indicator: TA100, Metabolic Activation: HAMSTER, LIVER, S-9, AROCLOR 1254, Method: PREINCUBATION
[8] = Test System: AMES SALMONELLA TYPHIMURIUM, Strain/Indicator: TA100, Metabolic Activation: RAT, LIVER, S-9, AROCLOR 1254, Method: PREINCUBATION
[9] = Test System: AMES SALMONELLA TYPHIMURIUM, Strain/Indicator: TA1535, Metabolic Activation: HAMSTER, LIVER, S-9, AROCLOR 1254, Method: PREINCUBATION
[10] = Test System: AMES SALMONELLA TYPHIMURIUM, Strain/Indicator: TA1535, Metabolic Activation: RAT, LIVER, S-9, AROCLOR 1254, Method: PREINCUBATION
[11] = Test System: AMES SALMONELLA TYPHIMURIUM, Strain/Indicator: TA1537, Metabolic Activation: HAMSTER, LIVER, S-9, AROCLOR 1254, Method: PREINCUBATION
[12] = Test System: AMES SALMONELLA TYPHIMURIUM, Strain/Indicator: TA1537, Metabolic Activation: RAT, LIVER, S-9, AROCLOR 1254, Method: PREINCUBATION

In the case of CCCCOCCOCCSC#N, the mutagenic call (Test System: AMES SALMONELLA TYPHIMURIUM, Strain/Indicator: TA97, Metabolic Activation: HAMSTER, LIVER, S-9, AROCLOR 1254 (10%), Method: PREINCUBATION) is reported as “inactive; negative”, the mutagenic call (Test System: AMES SALMONELLA TYPHIMURIUM, Strain/Indicator: TA97, Metabolic Activation: HAMSTER, LIVER, S-9, AROCLOR 1254 (30%), Method: PREINCUBATION) is reported as “inactive; negative” and the mutagenic call (Test System: AMES SALMONELLA TYPHIMURIUM, Strain/Indicator: TA97, Metabolic Activation: NONE, Method: PREINCUBATION) is reported as “inactive; negative”. The mutagenic call (Test System: AMES SALMONELLA TYPHIMURIUM, Strain/Indicator: TA97, Metabolic Activation: RAT, LIVER, S-9, AROCLOR 1254 (10%), Method: PREINCUBATION) was “inactive; negative”, the mutagenic call (Test System: AMES SALMONELLA TYPHIMURIUM, Strain/Indicator: TA97, Metabolic Activation: RAT, LIVER, S-9, AROCLOR 1254 (30%), Method: PREINCUBATION) was “inactive; negative” and the mutagenic call (Test System: AMES SALMONELLA TYPHIMURIUM, Strain/Indicator: TA98, Metabolic Activation: HAMSTER, LIVER, S-9, AROCLOR 1254 (10%), Method: PREINCUBATION) was “inactive; negative”. The mutagenic call (Test System: AMES SALMONELLA TYPHIMURIUM, Strain/Indicator: TA98, Metabolic Activation: HAMSTER, LIVER, S-9, AROCLOR 1254 (30%), Method: PREINCUBATION) was “inactive; negative”, the mutagenic call [1] was “inactive; negative” and the mutagenic call (Test System: AMES SALMONELLA TYPHIMURIUM, Strain/Indicator: TA98, Metabolic Activation: RAT, LIVER, S-9, AROCLOR 1254 (10%), Method: PREINCUBATION) was “inactive; negative”. For the same molecule, the mutagenic call (Test System: AMES SALMONELLA TYPHIMURIUM, Strain/Indicator: TA98, Metabolic Activation: RAT, LIVER, S-9, AROCLOR 1254 (30%), Method: PREINCUBATION) was “inactive; negative”, the mutagenic call (Test System: AMES SALMONELLA TYPHIMURIUM, Strain/Indicator: TA100, Metabolic Activation: HAMSTER, LIVER, S-9, AROCLOR 1254 (10%), Method: PREINCUBATION) was “inactive; negative” and the mutagenic call (Test System: AMES SALMONELLA TYPHIMURIUM, Strain/Indicator: TA100, Metabolic Activation: HAMSTER, LIVER, S-9, AROCLOR 1254 (30%), Method: PREINCUBATION) was “inactive; negative”. For the same molecule, the mutagenic call [2] was “inactive; negative”, the mutagenic call (Test System: AMES SALMONELLA TYPHIMURIUM, Strain/Indicator: TA100, Metabolic Activation: RAT, LIVER, S-9, AROCLOR 1254 (10%), Method: PREINCUBATION) was “inactive; negative” and the mutagenic call (Test System: AMES SALMONELLA TYPHIMURIUM, Strain/Indicator: TA100, Metabolic Activation: RAT, LIVER, S-9, AROCLOR 1254 (30%), Method: PREINCUBATION) was “inactive; negative”. The mutagenic call (Test System: AMES SALMONELLA TYPHIMURIUM, Strain/Indicator: TA1535, Metabolic Activation: HAMSTER, LIVER, S-9, AROCLOR 1254 (10%), Method: PREINCUBATION) was “inactive; negative”, the mutagenic call (Test System: AMES SALMONELLA TYPHIMURIUM, Strain/Indicator: TA1535, Metabolic Activation: HAMSTER, LIVER, S-9, AROCLOR 1254 (30%), Method: PREINCUBATION) was “inactive; negative” and the mutagenic call [3] was “inactive; negative”. The mutagenic call (Test System: AMES SALMONELLA TYPHIMURIUM, Strain/Indicator: TA1535, Metabolic Activation: RAT, LIVER, S-9, AROCLOR 1254 (10%), Method: PREINCUBATION) was “inactive; negative”, the mutagenic call (Test System: AMES SALMONELLA TYPHIMURIUM, Strain/Indicator: TA1535, Metabolic Activation: RAT, LIVER, S-9, AROCLOR 1254 (30%), Method: PREINCUBATION) was “inactive; negative” and the mutagenic call (Test System: AMES SALMONELLA TYPHIMURIUM, Strain/Indicator: TA1537, Metabolic Activation: HAMSTER, LIVER, S-9, AROCLOR 1254 (30%), Method: PREINCUBATION) was “inactive; negative”. For the same molecule, the mutagenic call [4] was “inactive; negative” and the mutagenic call (Test System: AMES SALMONELLA TYPHIMURIUM, Strain/Indicator: TA1537, Metabolic Activation: RAT, LIVER, S-9, AROCLOR 1254 (30%), Method: PREINCUBATION) was “inactive; negative”.
In the case of CC1(C)C(=O)N(Cl)C(=O)N1Cl, the mutagenic call (End Point: IN VITRO CHROMOSOMAL ABERRATIONS, Test System: CHINESE HAMSTER OVARY CELLS, Metabolic Activation: NONE) is reported as “inactive; negative”, the mutagenic call (End Point: IN VITRO CHROMOSOMAL ABERRATIONS, Test System: CHINESE HAMSTER OVARY CELLS, Metabolic Activation: RAT, LIVER, S-9, AROCLOR 1254) is reported as “inactive; negative” and the mutagenic call [5] is reported as “inactive; negative”. For the same molecule, the mutagenic call [1] was “inactive; negative”, the mutagenic call [6] was “inactive; negative” and the mutagenic call [7] was “inactive; negative”. For the same molecule, the mutagenic call [2] was “inactive; negative”, the mutagenic call [8] was “inactive; negative” and the mutagenic call [9] was “inactive; negative”. For the same molecule, the mutagenic call [3] was “inactive; negative”, the mutagenic call [10] was “inactive; negative” and the mutagenic call [11] was “inactive; negative”. The mutagenic call [4] was “inactive; negative” and the mutagenic call [12] was “inactive; negative”.
With C(=C\c1ccccc1)/c1ccccc1 the mutagenic call [5] was “inactive; negative”, the mutagenic call [1] was “inactive; negative” and the mutagenic call [6] was “inactive; negative”. The mutagenic call [7] was “inactive; negative”, the mutagenic call [2] was “inactive; negative” and the mutagenic call [8] was “inactive; negative”. The mutagenic call [9] was “inactive; negative”, the mutagenic call [3] was “inactive; negative” and the mutagenic call [10] was “inactive; negative”. For the same molecule, the mutagenic call [11] was “inactive; negative”, the mutagenic call [4] was “inactive; negative” and the mutagenic call [12] was “inactive; negative”.
O[C@@H]1c2cccc3ccc4cc5ccccc5c(c4c23)[C@H]1O was tested, and the mutagenic call (Test System: CHINESE HAMSTER V-79, Strain/Indicator: V-79/8-AZAGUANINE, Metabolic Activation: NONE, Method: STANDARD PLATE) was “active; positive”.
